Assay results: the NIST ThermoML archive (doi:10.1021/je900550v)

Details: 101.33 kPa, Liquid; for speed of sound: Pulse-echo method; for mass density: Vibrating tube method

C[NH2+]CCO.O=C[O-] [2-hydroxy-N-methylethanaminium formate]
Details | mass density [kg/m3] | speed of sound [m/s] | viscosity [mPa·s]
278.15 K | 1139.41 | 1854.7 | –
278.4 K | 1139.26 | 1854.2 | –
278.65 K | 1139.13 | 1853.7 | –
278.9 K | 1138.99 | 1853.2 | –
279.15 K | 1138.85 | 1852.7 | –
279.4 K | 1138.71 | 1852.2 | –
279.65 K | 1138.58 | 1851.7 | –
279.9 K | 1138.44 | 1851.2 | –
280.15 K | 1138.3 | 1850.7 | –
280.4 K | 1138.16 | 1850.2 | –
280.65 K | 1138.02 | 1849.7 | –
280.9 K | 1137.88 | 1849.2 | –
281.15 K | 1137.73 | 1848.7 | –
281.4 K | 1137.6 | 1848.2 | –
281.65 K | 1137.46 | 1847.7 | –
281.9 K | 1137.32 | 1847.2 | –
282.15 K | 1137.18 | 1846.8 | –
282.4 K | 1137.04 | 1846.3 | –
282.65 K | 1136.9 | 1845.8 | –
282.9 K | 1136.77 | 1845.3 | –
283.15 K | 1136.62 | 1844.8 | –
283.4 K | 1136.49 | 1844.3 | –
283.65 K | 1136.35 | 1843.8 | –
283.9 K | 1136.21 | 1843.3 | –
284.15 K | 1136.07 | 1842.8 | –
284.4 K | 1135.93 | 1842.3 | –
284.65 K | 1135.79 | 1841.8 | –
284.9 K | 1135.65 | 1841.3 | –
285.15 K | 1135.51 | 1840.8 | –
285.4 K | 1135.37 | 1840.3 | –
285.65 K | 1135.23 | 1839.8 | –
285.9 K | 1135.09 | 1839.3 | –
286.15 K | 1134.95 | 1838.9 | –
286.4 K | 1134.81 | 1838.4 | –
286.65 K | 1134.67 | 1837.9 | –
286.9 K | 1134.53 | 1837.4 | –
287.15 K | 1134.39 | 1836.9 | –
287.4 K | 1134.25 | 1836.4 | –
287.65 K | 1134.11 | 1835.9 | –
287.9 K | 1133.97 | 1835.4 | –
288.15 K | 1133.84 | 1834.9 | 34.2
288.4 K | 1133.69 | 1834.4 | –
288.65 K | 1133.55 | 1833.9 | –
288.9 K | 1133.41 | 1833.4 | –
289.15 K | 1133.28 | 1833 | –
289.4 K | 1133.13 | 1832.5 | –
289.65 K | 1133 | 1832 | –
289.9 K | 1132.86 | 1831.5 | –
290.15 K | 1132.72 | 1831 | –
290.4 K | 1132.58 | 1830.5 | –
290.65 K | 1132.44 | 1830 | 30.15
290.9 K | 1132.3 | 1829.5 | –
291.15 K | 1132.16 | 1829 | –
291.4 K | 1132.01 | 1828.5 | –
291.65 K | 1131.88 | 1828 | –
291.9 K | 1131.74 | 1827.5 | –
292.15 K | 1131.6 | 1827 | –
292.4 K | 1131.46 | 1826.6 | –
292.65 K | 1131.32 | 1826.1 | –
292.9 K | 1131.18 | 1825.6 | –
293.15 K | 1131.04 | 1825.1 | 26.05
293.4 K | 1130.9 | 1824.6 | –
293.65 K | 1130.76 | 1824.1 | –
293.9 K | 1130.62 | 1823.6 | –
294.15 K | 1130.48 | 1823.2 | –
294.4 K | 1130.34 | 1822.7 | –
294.65 K | 1130.2 | 1822.2 | –
294.9 K | 1130.06 | 1821.7 | –
295.15 K | 1129.92 | 1821.2 | –
295.4 K | 1129.78 | 1820.7 | –
295.65 K | 1129.64 | 1820.2 | 23.22
295.9 K | 1129.5 | 1819.7 | –
296.15 K | 1129.37 | 1819.2 | –
296.4 K | 1129.23 | 1818.7 | –
296.65 K | 1129.08 | 1818.2 | –
296.9 K | 1128.94 | 1817.7 | –
297.15 K | 1128.8 | 1817.3 | –
297.4 K | 1128.66 | 1816.8 | –
297.65 K | 1128.52 | 1816.3 | –
297.9 K | 1128.38 | 1815.8 | –
298.15 K | 1128.25 | 1815.3 | 20.27
298.4 K | 1128.11 | 1814.8 | –
298.65 K | 1127.96 | 1814.3 | –
298.9 K | 1127.83 | 1813.8 | –
299.15 K | 1127.69 | 1813.4 | –
299.4 K | 1127.55 | 1812.9 | –
299.65 K | 1127.41 | 1812.4 | –
299.9 K | 1127.27 | 1811.9 | –
300.15 K | 1127.13 | 1811.4 | –
300.4 K | 1126.99 | 1810.9 | –
300.65 K | 1126.85 | 1810.4 | 18.37
300.9 K | 1126.71 | 1809.9 | –
301.15 K | 1126.57 | 1809.5 | –
301.4 K | 1126.43 | 1809 | –
301.65 K | 1126.29 | 1808.5 | –
301.9 K | 1126.15 | 1808 | –
302.15 K | 1126.02 | 1807.5 | –
302.4 K | 1125.87 | 1807 | –
302.65 K | 1125.73 | 1806.5 | –
302.9 K | 1125.59 | 1806 | –
303.15 K | 1125.45 | 1805.6 | 16.4
303.4 K | 1125.32 | 1805.1 | –
303.65 K | 1125.18 | 1804.6 | –
303.9 K | 1125.04 | 1804.1 | –
304.15 K | 1124.89 | 1803.6 | –
304.4 K | 1124.76 | 1803.2 | –
304.65 K | 1124.62 | 1802.7 | –
304.91 K | 1124.48 | 1802.2 | –
305.15 K | 1124.34 | 1801.7 | 15.1
305.4 K | 1124.2 | 1801.2 | –
305.65 K | 1124.06 | 1800.7 | –
305.9 K | 1123.92 | 1800.2 | –
306.15 K | 1123.78 | 1799.7 | –
306.4 K | 1123.64 | 1799.3 | –
306.65 K | 1123.5 | 1798.8 | –
306.9 K | 1123.36 | 1798.3 | –
307.15 K | 1123.22 | 1797.8 | –
307.4 K | 1123.08 | 1797.3 | –
307.65 K | 1122.94 | 1796.8 | –
307.9 K | 1122.8 | 1796.3 | –
